In one assay the target is FGFR3 enzyme (Millipore) (Homo sapiens (Human), UniProt P22607). As to conditions: read-out: FGFR3 IC50, ATP 140 μM.
A further assay concerns the target FGFR2 (Homo sapiens (Human), UniProt P21802). In words: FGFR Enzymatic Assay (FGFR2).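 Note: FRET read-out of peptide phosphorylation by the purified kinase, with enzyme-free blank and uninhibited enzyme as controls, potency from a variable-slope sigmoidal dose-response fit.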 Type of assay: biochemical. Conditions: enzyme 0.01 nM, ATP 100 μM; read-out: FGFR2 IC50.
In a further assay the target is FGFR1 (Homo sapiens (Human), UniProt P11362). In words: FGFR Enzymatic Assay (FGFR1). Conditions: enzyme 0.02 nM, ATP 210 μM. Type of assay: biochemical.
FGFR1, sequence (P11362 22-822): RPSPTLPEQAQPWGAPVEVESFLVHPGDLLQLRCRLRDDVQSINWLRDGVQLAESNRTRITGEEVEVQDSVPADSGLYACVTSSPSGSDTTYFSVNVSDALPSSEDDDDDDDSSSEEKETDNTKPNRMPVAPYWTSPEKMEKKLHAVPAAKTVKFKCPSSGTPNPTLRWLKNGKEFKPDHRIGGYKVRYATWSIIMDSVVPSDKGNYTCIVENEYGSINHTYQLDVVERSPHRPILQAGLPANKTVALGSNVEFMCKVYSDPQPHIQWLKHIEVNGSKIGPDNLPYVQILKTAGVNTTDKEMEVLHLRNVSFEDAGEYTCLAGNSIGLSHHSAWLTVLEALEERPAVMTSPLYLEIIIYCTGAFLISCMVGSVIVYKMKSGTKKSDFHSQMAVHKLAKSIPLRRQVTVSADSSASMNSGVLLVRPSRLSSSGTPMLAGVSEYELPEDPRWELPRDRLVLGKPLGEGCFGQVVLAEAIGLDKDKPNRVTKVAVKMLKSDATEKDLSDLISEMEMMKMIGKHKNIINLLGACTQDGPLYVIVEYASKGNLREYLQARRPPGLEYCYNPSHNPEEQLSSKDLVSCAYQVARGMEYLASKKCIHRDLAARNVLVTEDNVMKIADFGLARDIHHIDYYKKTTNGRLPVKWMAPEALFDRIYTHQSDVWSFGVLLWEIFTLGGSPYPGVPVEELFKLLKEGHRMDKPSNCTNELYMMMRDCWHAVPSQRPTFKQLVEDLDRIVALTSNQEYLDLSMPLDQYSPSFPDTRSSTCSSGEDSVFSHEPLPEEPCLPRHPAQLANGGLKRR

Like-named read-outs stand apart in the source and are kept apart here. A value given as a limit tells only on which side of the number the result lay.

FGFR3 enzyme (Millipore), sequence (P22607 23-806): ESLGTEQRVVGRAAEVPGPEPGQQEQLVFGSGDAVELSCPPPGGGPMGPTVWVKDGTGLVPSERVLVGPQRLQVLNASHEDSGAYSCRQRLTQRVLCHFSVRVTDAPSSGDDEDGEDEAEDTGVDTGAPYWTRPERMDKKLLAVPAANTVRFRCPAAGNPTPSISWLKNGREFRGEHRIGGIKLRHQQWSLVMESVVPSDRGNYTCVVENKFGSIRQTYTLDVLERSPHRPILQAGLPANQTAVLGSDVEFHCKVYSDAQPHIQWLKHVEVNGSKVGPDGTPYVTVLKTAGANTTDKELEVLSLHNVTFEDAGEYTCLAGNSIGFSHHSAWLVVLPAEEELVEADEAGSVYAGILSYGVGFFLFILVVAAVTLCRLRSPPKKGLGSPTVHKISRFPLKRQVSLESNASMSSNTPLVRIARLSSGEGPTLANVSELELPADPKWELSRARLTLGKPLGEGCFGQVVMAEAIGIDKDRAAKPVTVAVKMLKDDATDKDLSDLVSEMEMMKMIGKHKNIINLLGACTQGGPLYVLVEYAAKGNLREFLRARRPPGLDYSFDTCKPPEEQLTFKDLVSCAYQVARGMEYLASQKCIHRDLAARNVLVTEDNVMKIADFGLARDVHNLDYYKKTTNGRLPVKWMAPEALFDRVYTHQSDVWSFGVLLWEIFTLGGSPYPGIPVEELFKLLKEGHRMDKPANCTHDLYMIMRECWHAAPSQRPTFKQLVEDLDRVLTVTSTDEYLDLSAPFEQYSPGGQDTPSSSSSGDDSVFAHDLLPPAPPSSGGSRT
FGFR2, sequence (P21802 22-821): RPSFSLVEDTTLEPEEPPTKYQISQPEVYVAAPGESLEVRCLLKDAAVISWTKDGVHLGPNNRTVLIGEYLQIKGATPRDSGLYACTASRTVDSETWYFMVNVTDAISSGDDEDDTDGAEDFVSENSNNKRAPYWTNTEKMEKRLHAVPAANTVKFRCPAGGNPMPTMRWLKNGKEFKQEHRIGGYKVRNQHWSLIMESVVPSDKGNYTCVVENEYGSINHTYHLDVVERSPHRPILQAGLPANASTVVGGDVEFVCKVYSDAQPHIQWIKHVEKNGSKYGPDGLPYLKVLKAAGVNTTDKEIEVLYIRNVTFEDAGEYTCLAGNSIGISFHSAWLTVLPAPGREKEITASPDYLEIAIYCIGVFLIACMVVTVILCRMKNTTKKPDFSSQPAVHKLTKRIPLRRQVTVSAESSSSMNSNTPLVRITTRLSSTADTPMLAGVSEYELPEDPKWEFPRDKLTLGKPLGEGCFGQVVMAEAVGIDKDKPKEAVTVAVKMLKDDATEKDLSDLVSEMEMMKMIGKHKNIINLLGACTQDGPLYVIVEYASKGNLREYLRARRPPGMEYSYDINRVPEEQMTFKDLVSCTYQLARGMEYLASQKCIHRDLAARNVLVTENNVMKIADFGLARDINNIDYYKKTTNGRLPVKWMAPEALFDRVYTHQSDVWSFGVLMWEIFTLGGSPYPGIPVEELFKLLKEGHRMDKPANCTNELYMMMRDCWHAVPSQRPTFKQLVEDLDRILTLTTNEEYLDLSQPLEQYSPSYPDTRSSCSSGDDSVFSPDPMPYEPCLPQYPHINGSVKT
Protocol for FGFR1: (§1) The inhibitor potency of compounds was measured in an enzyme assay that measures peptide phosphorylation using FRET measurements to detect product formation. Inhibitors were serially diluted in DMSO and a volume of 0.5 μL was transferred to the wells of a 384-well plate. For FGFR3, a 10 μL volume of FGFR3 enzyme (Millipore) diluted in assay buffer (50 mM HEPES, 10 mM MgCl2, 1 mM EGTA, 0.01% Tween-20, 5 mM DTT, pH 7.5) was added to the plate and pre-incubated for 5-10 minutes. Appropriate controls (enzyme blank and enzyme with no inhibitor) were included on the plate. […] The plate was incubated at 25° C. for 1 hr. […] The plate was allowed to equilibrate for ˜1 hr before scanning the wells on a PheraStar plate reader.
(§2) GraphPad prism3 was used to analyze the data. The IC50 values were derived by fitting the data to the equation for a sigmoidal dose-response with a variable slope. Y=Bottom+(Top−Bottom)/(1+10^((Log IC50−X)*HillSlope)) where X is the logarithm of concentration and Y is the response.
Protocol for FGFR2: as §1, §2
Protocol for FGFR3 enzyme (Millipore): as §1, §2

For the molecule `CCN1CCN(c2ccc(-c3cc4nc(CCc5cc(OC)cc(OC)c5)cnc4[nH]3)cc2)CC1` [Example 2, 2-[2-(3,5-dimethoxyphenyl)ethyl]-6-[4-(4-ethylpiperazin-1-yl)phenyl]-5H-pyrrolo[2,3-b]pyrazine], the IC50 at FGFR3 enzyme (Millipore) (class symbols), at FGFR2 and on FGFR1 was below 100 nM in each case.
`COc1cc(CCc2cnc3[nH]c(-c4ccc(C(=O)N(C)C)c(Cl)c4)cc3n2)cc(OC)c1` [Example 56, 2-Chloro-4-(2-(3,5-dimethoxyphenethyl)-5H-pyrrolo[2,3-b]pyrazin-6-yl)-N,N-dimethylbenzamide]: the IC50 at FGFR3 enzyme (Millipore) (class symbols), at FGFR2 and against FGFR1 was below 100 nM in each case.
As to `COc1cc(CCc2cnc3[nH]c(-c4ccc(N5CCN(C)CC5)cc4)c(Cl)c3n2)cc(OC)c1` [Example 47, 7-chloro-2-[2-(3,5-dimethoxyphenyl)ethyl]-6-[4-(4-methylpiperazin-1-yl)phenyl]-5H-pyrrolo[2,3-b]pyrazine], the IC50 on FGFR3 enzyme (Millipore) (class symbols), at FGFR2 and against FGFR1 was below 100 nM in each case.
On to `COc1cc(CCc2cnc3[nH]c(-c4cnn(C[C@H](C)O)c4)cc3n2)cc(OC)c1` [Example 39, (2S)-1-(4-{2-[2-(3,5-dimethoxyphenyl)ethyl]-5H-pyrrolo[2,3-b]pyrazin-6-yl}-1H-pyrazol-1-yl)propan-2-ol], for which the IC50 on FGFR3 enzyme (Millipore) (class symbols), on FGFR2 and on FGFR1 was below 100 nM throughout.
On to `COc1cc(CCc2cnc3[nH]c(-c4ccc(N5CCN(C)CC5)cc4)cc3n2)c(F)c(OC)c1` [Example 82, 2-(2-Fluoro-3,5-dimethoxyphenethyl)-6-(4-(4-methylpiperazin-1-yl)phenyl)-5H-pyrrolo[2,3-b]pyrazine], for which the IC50 on FGFR3 enzyme (Millipore) (class symbols), at FGFR2 and on FGFR1 was below 100 nM in each case.
Consider `COc1cc(CCc2cnc3[nH]c(-c4ccc(C(=O)NC(C)C)c(Cl)c4)cc3n2)cc(OC)c1` [Example 53, 2-Chloro-4-(2-(3,5-dimethoxyphenethyl)-5H-pyrrolo[2,3-b]pyrazin-6-yl)-N-isopropylbenzamide], for which the IC50 on FGFR3 enzyme (Millipore) (class symbols), at FGFR2 and on FGFR1 was below 100 nM throughout.
As for `COc1cc(CCc2cnc3[nH]c(-c4ccc(CN5CCCCC5)cc4)cc3n2)cc(OC)c1` [Example 11, 2-[2-(3,5-dimethoxyphenyl)ethyl]-6-[4-(piperidin-1-ylmethyl)phenyl]-5H-pyrrolo[2,3-b]pyrazine], the IC50 at FGFR3 enzyme (Millipore) (class symbols), at FGFR2 and on FGFR1 was below 100 nM in each case.
For `COc1cc(CCc2cnc3[nH]c(-c4ccc(N5CCC(O)CC5)cc4)cc3n2)cc(OC)c1` [Example 77, 1-(4-(2-(3,5-Dimethoxyphenethyl)-5H-pyrrolo[2,3-b]pyrazin-6-yl)phenyl)piperidin-4-ol], the IC50 at FGFR3 enzyme (Millipore) (class symbols), on FGFR2 and against FGFR1 was below 100 nM in each case.
In the case of `COc1cc(CCc2cnc3[nH]c(-c4ccc(N5CCN(C)CC5)cc4)c(C)c3n2)cc(OC)c1` [Example 51, 2-[2-(3,5-dimethoxyphenyl)ethyl]-7-methyl-6-[4-(4-methylpiperazin-1-yl)phenyl]-5H-pyrrolo[2,3-b]pyrazine], the IC50 at FGFR3 enzyme (Millipore) (class symbols), on FGFR2 and against FGFR1 was below 100 nM each time.
As to `COc1cc(CCc2cnc3[nH]c(-c4cnc5nccnc5c4)cc3n2)cc(OC)c1` [Example 66, 7-(2-(3,5-Dimethoxyphenethyl)-5H-pyrrolo[2,3-b]pyrazin-6-yl)pyrido[2,3-b]pyrazine], the figures for the IC50 on FGFR3 enzyme (Millipore) (numeric bounds), at FGFR2 and at FGFR1 were above 2000 nM, below 100 nM and below 100 nM, respectively.
With `COc1cc(CCc2cnc3[nH]c(-c4cnn(CCN5CCCCC5)c4)cc3n2)cc(OC)c1` [Example 41, 2-[2-(3,5-dimethoxyphenyl)ethyl]-6-[1-(2-piperidin-1-ylethyl)-1H-pyrazol-4-yl]-5H-pyrrolo[2,3-b]pyrazine], the IC50 at FGFR3 enzyme (Millipore) (class symbols), on FGFR2 and against FGFR1 was below 100 nM in each case.
As for `COc1cc(CCc2cnc3[nH]c(-c4cnn(CCN5CCOCC5)c4)cc3n2)cc(OC)c1` [Example 31, 2-[2-(3,5-dimethoxyphenyl)ethyl]-6-[1-(2-morpholin-4-ylethyl)-1H-pyrazol-4-yl]-5H-pyrrolo[2,3-b]pyrazine], the IC50 on FGFR3 enzyme (Millipore) (class symbols), on FGFR2 and against FGFR1 was below 100 nM in each case.
With `COc1cc(CCc2cnc3[nH]c(C4CCN(C)CC4)cc3n2)cc(OC)c1` [Example 24, 2-[2-(3,5-dimethoxyphenyl)ethyl]-6-(1-methylpiperidin-4-yl)-5H-pyrrolo[2,3-b]pyrazine], the IC50 on FGFR3 enzyme (Millipore) (numeric bounds) is above 2000 nM.
For `CNC(=O)c1ccc(-c2cc3nc(CCc4cc(OC)cc(OC)c4)cnc3[nH]2)cc1F` [Example 57, 4-(2-(3,5-Dimethoxyphenethyl)-5H-pyrrolo[2,3-b]pyrazin-6-yl)-2-fluoro-N-methylbenzamide], the IC50 at FGFR3 enzyme (Millipore) (class symbols), on FGFR2 and on FGFR1 was below 100 nM throughout.
Take `COc1cc(OC)c(F)c(CCc2cnc3[nH]c(-c4ccccc4C#N)cc3n2)c1F` [Example 85, 2-(2-(2,6-difluoro-3,5-dimethoxyphenethyl)-5H-pyrrolo[2,3-b]pyrazin-6-yl)benzonitrile]: the IC50 at FGFR3 enzyme (Millipore) (class symbols), at FGFR2 and at FGFR1 was below 100 nM in each case.
`COc1cc(CCc2cnc3[nH]c(-c4cccc(N5CCN(C)CC5)c4)cc3n2)cc(OC)c1` [Example 79, 2-(3,5-Dimethoxyphenethyl)-6-(3-(4-methylpiperazin-1-yl)phenyl)-5H-pyrrolo[2,3-b]pyrazine]: the IC50 on FGFR3 enzyme (Millipore) (class symbols), at FGFR2 and against FGFR1 was below 100 nM throughout.
In the case of `COc1cc(CCc2cnc3[nH]c(C(=O)N(C)C)cc3n2)cc(OC)c1` [Example 26, 2-[2-(3,5-dimethoxyphenyl)ethyl]-N,N-dimethyl-5H-pyrrolo[2,3-b]pyrazine-6-carboxamide], the IC50 at FGFR3 enzyme (Millipore) (numeric bounds) was above 2000 nM; on FGFR2 it was 500 to 2700 nM.
`CCc1c(-c2ccc(N3CCN(C)CC3)cc2)[nH]c2ncc(CCc3cc(OC)cc(OC)c3)nc12` [Example 52, 2-[2-(3,5-dimethoxyphenyl)ethyl]-7-ethyl-6-[4-(4-methylpiperazin-1-yl)phenyl]-5H-pyrrolo[2,3-b]pyrazine]: the IC50 at FGFR3 enzyme (Millipore) (class symbols), at FGFR2 and on FGFR1 was below 100 nM in each case.
Consider `COc1cc(OC)c(F)c(CCc2cnc3[nH]c(-c4cnn(C)c4)cc3n2)c1F` [Example 84, 2-(2,6-difluoro-3,5-dimethoxyphenethyl)-6-(1-methyl-1H-pyrazol-4-yl)-5H-pyrrolo[2,3-b]pyrazine], for which the IC50 on FGFR3 enzyme (Millipore) (class symbols), on FGFR2 and against FGFR1 was below 100 nM throughout.
In the case of `CNC(=O)c1cc2nc(CCc3c(F)c(OC)cc(OC)c3F)cnc2[nH]1` [Example 89, 2-(2,6-difluoro-3,5-dimethoxyphenethyl)-N-methyl-5H-pyrrolo[2,3-b]pyrazine-6-carboxamide], the IC50 on FGFR3 enzyme (Millipore) (numeric bounds) is above 400 nM; on FGFR2, below 100 nM; against FGFR1 it was below 100 nM.
On to `COc1cc(OC)c(F)c(CCc2cnc3[nH]c(-c4cccnc4OC)cc3n2)c1F` [Example 86, 2-(2,6-difluoro-3,5-dimethoxyphenethyl)-6-(2-methoxypyridin-3-yl)-5H-pyrrolo[2,3-b]pyrazine], for which the IC50 at FGFR3 enzyme (Millipore) (class symbols), at FGFR2 and against FGFR1 was below 100 nM throughout.
Take `COc1cc(CCc2cnc3[nH]c(-c4ccc5c(cnn5C)c4)cc3n2)cc(OC)c1` [Example 62, 2-(3,5-Dimethoxyphenethyl)-6-(1-methyl-1H-indazol-5-yl)-5H-pyrrolo[2,3-b]pyrazine]: the IC50 on FGFR3 enzyme (Millipore) (class symbols), on FGFR2 and on FGFR1 was below 100 nM throughout.
As to `COc1cc(CCc2cnc3[nH]c(-c4cccc(N5CCNCC5)c4)cc3n2)cc(OC)c1` [Example 78, 2-(3,5-Dimethoxyphenethyl)-6-(3-(piperazin-1-yl)phenyl)-5H-pyrrolo[2,3-b]pyrazine], the concentration for half-maximal inhibition (IC50) on FGFR3 enzyme (Millipore) (class symbols), at FGFR2 and on FGFR1 was below 100 nM in each case.
As for `COc1cc(CCc2cnc3[nH]c(-c4ccnc(N5CCNCC5)c4)cc3n2)cc(OC)c1` [Example 64, 2-(3,5-Dimethoxyphenethyl)-6-(2-(piperazin-1-yl)pyridin-4-yl)-5H-pyrrolo[2,3-b]pyrazine], the IC50 on FGFR3 enzyme (Millipore) (class symbols), on FGFR2 and against FGFR1 was below 100 nM in each case.
For `CNC(=O)c1cc2nc(CCc3cc(OC)cc(OC)c3)cnc2[nH]1` [Example 25, 2-[2-(3,5-dimethoxyphenyl)ethyl]-N-methyl-5H-pyrrolo[2,3-b]pyrazine-6-carboxamide], the IC50 on FGFR3 enzyme (Millipore) (numeric bounds) was above 2000 nM.
The same measure, in the same setting: the same measure for `CCN(CC)CCCc1cc2nc(CCc3cc(OC)cc(OC)c3)cnc2[nH]1` [Example 28, 3-{2-[2-(3,5-dimethoxyphenyl)ethyl]-5H-pyrrolo[2,3-b]pyrazin-6-yl}-N,N-diethylpropan-1-amine]: above 2000 nM.
Regarding `COc1cc(CCc2cnc3[nH]c(-c4ccc5c(c4)OCO5)cc3n2)cc(OC)c1` [Example 21, 6-(1,3-benzodioxol-5-yl)-2-[2-(3,5-dimethoxyphenyl)ethyl]-5H-pyrrolo[2,3-b]pyrazine], the IC50 on FGFR3 enzyme (Millipore) (numeric bounds) was above 2000 nM.
As for `COc1cc(CCc2cnc3[nH]c(-c4ccc(N5CCN(C)CC5)c(C#N)c4)cc3n2)cc(OC)c1` [Example 72, 5-(2-(3,5-Dimethoxyphenethyl)-5H-pyrrolo[2,3-b]pyrazin-6-yl)-2-(4-methylpiperazin-1-yl)benzonitrile], the IC50 at FGFR2 and against FGFR1 was below 100 nM each time.
Turning to `COc1cc(CCc2cnc3[nH]c(-c4ccc(F)c(C#N)c4)cc3n2)cc(OC)c1` [Example 65, 5-(2-(3,5-Dimethoxyphenethyl)-5H-pyrrolo[2,3-b]pyrazin-6-yl)-2-fluorobenzonitrile], the IC50 at FGFR2 and on FGFR1 was below 100 nM throughout.
